Key:
[1] = tested on: SEQ ID NO:61 expression in human peripheral blood mononuclear cells (PBMCs); experiment: Microarray expression of SEQ ID NO:61 in PBMCs treated with acetaminophen; type: cell-based; conditions: human PBMCs treated with acetaminophen compared to untreated cells
From the text: Therefore, SEQ ID NO:61 is useful in disease staging and in diagnostic assays for immune disorders.

[2] = tested on: SEQ ID NO:64 expression in human C3A liver cells; experiment: Microarray expression of SEQ ID NO:64 in C3A liver cell cultures treated with steroids; type: cell-based; conditions: early confluent human C3A liver cells, 1 μM, 10 μM, and 100 μM for 1, 3, and 6 hours, compared to untreated cells
Experimental: Total RNA is isolated from tissue samples using the guanidinium thiocyanate method and poly(A)^+ RNA is purified using the oligo-(dT) cellulose method. Each poly(A)^+ RNA sample is reverse transcribed using MMLV reverse-transcriptase, 0.05 pg/μl oligo-(dT) primer (21mer), 1× first strand buffer, 0.03 units/μl RNase inhibitor, 500 μM dATP, 500 μM dGTP, 500 μM dTTP, 40 μM dCTP, 40 μM dCTP-Cy3 (BDS) or dCTP-Cy5 (Amersham Biosciences). The reverse transcription reaction is performed in a 25 ml volume containing 200 ng poly(A)^+ RNA with GEMBRIGHT kits (Incyte). Specific control poly(A)^+ RNAs are synthesized by in vitro transcription from non-coding yeast genomic DNA. After incubation at 37° C. for 2 hr, each reaction sample (one with Cy3 and another with Cy5 labeling) is treated with 2.5 ml of 0.5M sodium hydroxide and incubated for 20 minutes at 85° C. to the stop the reaction and degrade the RNA. Samples are purified using two successive CHROMA SPIN 30 gel filtration spin columns (Clontech, Palo Alto Calif.) and after combining, both reaction samples are ethanol precipitated using 1 ml of glycogen (1 mg/ml), 60 ml sodium acetate, and 300 ml of 100% ethanol. The sample is then dried to completion using a SpeedVAC (Savant Instruments Inc., Holbrook N.Y.) and resuspended in 14 μl 5×SSC/0.2% SDS.
Sequences of the present invention are used to generate array elements. Each array element is amplified from bacterial cells containing vectors with cloned cDNA inserts. PCR amplification uses primers complementary to the vector sequences flanking the cDNA insert. Array elements are amplified in thirty cycles of PCR from an initial quantity of 1-2 ng to a final quantity greater than 5 μg. Amplified array elements are then purified using [sequence]-400 (Amersham Biosciences). […]
Reporter-labeled hybridization complexes are detected with a microscope equipped with an Innova 70 mixed gas 10 W laser (Coherent, Inc., Santa Clara Calif.) capable of generating spectral lines at 488 nm for excitation of Cy3 and at 632 nm for excitation of Cy5. […]

[3] = intranasal; relative to hydrocortisone; cited from earlier work
[4] = relative to progesterone; cited from earlier work

Molecule | decrease in expression of SEQ ID NO:61 [1] | expression of SEQ ID NO:64 [2] | anti-inflammatory and vasoconstrictive effects greater than those produced by hydrocortisone [3] | pharmacological activity greater than progesterone [4]
CC(=O)Nc1ccc(O)cc1 [acetaminophen] | two-fold |  |  | 
C[C@H]1C[C@H]2[C@@H]3CCC4=CC(=O)C=C[C@]4(C)[C@@]3(Cl)[C@@H](O)C[C@]2(C)[C@@]1(O)C(=O)CO [beclomethasone] |  | decreased expression | 5000 times | 
C[C@]12C=CC(=O)C=C1CC[C@@H]1[C@@H]2C(=O)C[C@@]2(C)[C@H]1CC[C@]2(O)C(=O)CO [prednisone] |  | decreased expression |  | 
6α-methyl-17-hydroxyprogesterone [medroxyprogesterone] |  | decreased expression |  | about 15 times
